Data: patent publication US4462993A, “Aminoacridine-α, β-(D)- or -(L)-N-glycoside derivatives, the salts thereof and a process for the preparation of such compounds” (Biogal Gyogyszergyar, priority 1981, dated 1984)
Like-named read-outs stand apart in the source and are kept apart here.

Assays:
[1] = decomposition product; cited from earlier work
Aspergillus niger = test: efficacy against Aspergillus niger; assay type: cell-based
Description: (§1) The incorporation of the sugar group into the aminoacridine molecule modifies its properties in an unforeseen way. Thus e.g. 3,6-diamino-acridine and 3,6-diamino-10-methyl-acridine are efficacious in concentrations of 50 μg/ml against microorganisme (Bacillus subtilis, Salmonalla typhy-murium, Proteus vulgaris, Escherichia coli, Shigella flexneri etc.) while the diglucoside of the 3,6-diamino-acridine is inefficacious also in concentrations of 500 μg/ml against the named microorganisms. Inversely the aminoacridines are inefficacious against fungi while the diglucoside of 3,6-diamino-10-methyl-acridine is efficacious e.g. against Aspergillus funigatus and Aspergillus niger.

[2] = toxicity measurements at CFLP-mice (LD50); details: mouse, in vivo, female CFLP-mice
Source text: By the incorporation of one or more sugar residue(s) the toxicity of the compounds is influenced positively, too. The results of toxicity measurements carried out at CFLP-mice (female) (Litchfield, J. T. and Wilcoxon F.: J. Pharmacol. 96, 99 (1949) are summarized in the following Table.

[3] = system: ascites tumor according to Ehrlich; test: test with the Ehrlich-carcinoma in mice; assay type: in vivo
Description: A test with the Ehrlich-carcinoma was carried out with 50 mice each as test group and as K control group. The animals were intraperitoneally infected with 5×10^6 cells each of the ascites tumor according to Ehrlich. On the first, second and third day after the infection half of the mice were treated with 12.5 mg/kg.d of 10-methyl-proflavine-diglucoside.

Ehrlich tumor = test: inhibition and prevention of the Ehrlich tumor in mice and rats; assay type: in vivo
Aspergillus funigatus = test: efficacy against Aspergillus funigatus; assay type: cell-based
Description: as §1

Ehrlich ascites tumor = details: Schumelfelder et al., Z. Krebsforsch, 63, 129 (1959); cited from earlier work
[4] = literature; cited from earlier work
wounds = details: disinfecting of wounds, World War II; cited from earlier work
[5] = known; cited from earlier work

O=c1c2ccccc2[nH]c2cccc([N+](=O)[O-])c12 [1-nitroacridone]
biological activity [1]: biologically inactive

C[n+]1c2cc(N[C@@H]3O[C@H](CO)[C@@H](O)[C@H](O)[C@H]3O)ccc2cc2ccc(N[C@@H]3O[C@H](CO)[C@@H](O)[C@H](O)[C@H]3O)cc21.[Cl-] [3,6-Di-(β-D-glucopyranosyl-amino)-10-N-methyl-acridinium chloride]
efficacy against fungi (Aspergillus niger): efficacious
LD50 ([2]; ip, read-out: LD50 i.p.): 210 mg/kg
LD50 ([2]; iv, read-out: LD50 i.v.): 37 mg/kg
Change of body weight in g on the 7th day ([3]; 12.5 mg/kg.d on first, second and third day after infection, 7th day): +1.2 g
Change of body weight in g on the 12th day ([3]; 12.5 mg/kg.d on first, second and third day after infection, 12th day): +2.0 g
Change of body weight in g on the 21st day ([3]; 12.5 mg/kg.d on first, second and third day after infection, 21st day): +2.6 g
treated animals still living on the 40th day ([3]; 12.5 mg/kg.d, 40th day): all treated animals were still living
Average surviving time ([3]; 12.5 mg/kg.d, observation stopped on the 40th day): 40.0 days
state of the animal concerning its condition (Ehrlich tumor; 6.25 mg/kg-12.5 mg/kg i.p.): improves the state of the animal concerning its condition
development of the Ehrlich tumor (Ehrlich tumor; test animals: mice and rats): inhibits the development of the Ehrlich tumor
formation of the Ehrlich tumor (Ehrlich tumor; test animals: mice and rats): prevents its formation
efficacy against fungi (Aspergillus funigatus): efficacious

C[n+]1c2cc(N)ccc2cc2ccc(N)cc21 [3,6-diamino-10-methyl-acridine]
LD50 ([2]; ip, read-out: LD50 i.p.): 60 mg/kg
LD50 ([2]; iv, read-out: LD50 i.v.): 14 mg/kg
growth of the Ehrlich ascites tumor (Ehrlich ascites tumor): inhibited
mutation of certain objects [4]: can cause mutation of certain objects
healing of the wound (wounds): slowed down the healing of the wound
tissue necrosis (wounds): caused tissue necrosis
antimicrobial effect [5]: exert a certain antimicrobial effect

Nc1ccc2cc3ccc(N)cc3nc2c1 [3,6-diamino-acridine, 3,6-diaminoacridine]
LD50 ([2]; ip, read-out: LD50 i.p.): 84 mg/kg
LD50 ([2]; iv, read-out: LD50 i.v.): 65 mg/kg
mutation of certain objects [4]: can cause mutation of certain objects
healing of the wound (wounds): slowed down the healing of the wound
tissue necrosis (wounds): caused tissue necrosis
antimicrobial effect [5]: exert a certain antimicrobial effect

OC[C@H]1O[C@@H](Nc2ccc3cc4ccc(N[C@@H]5O[C@H](CO)[C@@H](O)[C@H](O)[C@H]5O)cc4nc3c2)[C@H](O)[C@@H](O)[C@@H]1O [3,6-diamino-acridine-diglucoside, 3,6-Di-(β-Di-glucopyranosyl-amino)-acridine]
LD50 ([2]; ip, read-out: LD50 i.p.): 280 mg/kg
LD50 ([2]; iv, read-out: LD50 i.v.): 87 mg/kg
